Earlier results in patent US10881492B2, “Oral care compositions and regimens” (The Procter & Gamble Company, priority 2014, dated 2021).

details: concentration level where the cooling effect can be clearly recognized

| SMILES | cooling threshold |
| --- | --- |
| CC(C)[C@@H]1CC[C@@H](C)C[C@H]1O [L-menthol] | about 800 ppb |
| CC(C)[C@@H]1CC[C@@H](C)C[C@@H]1O [Example 1-neomenthol, 1-neomenthol] | about 3,000 ppb |
| CC(C)[C@@H]1CC[C@@H](C)C[C@@H]1O [d-neomenthol] | about 25,000 ppb |
